Data set [1] addresses T1, Mitogen-activated protein kinase kinase kinase kinase 1 (Homo sapiens, UniProt Q92918). Kind of data set: Inhibition of HPK1 (unknown origin) followed by anti-GST antibody incubated for 60 mins measured after 1 hr by TR-FRET based LanthaScreen Eu-Kinase binding assay. (In general: In TR-FRET formats the signal depends on donor and acceptor labels being close together.)

Data set [2] deals with Cytochrome P450 3A4 (Homo sapiens, UniProt P08684). In words: Inhibition of CYP3A4 in human liver microsomes using testosterone as substrate by TDI- high-throughput based mass spectrometry method. Type of data set: ADME. On the technique in general: Liver microsomes are vesicles of endoplasmic reticulum, rich in cytochrome P450 enzymes.
Chain of Cytochrome P450 3A4 (P08684 whole entry): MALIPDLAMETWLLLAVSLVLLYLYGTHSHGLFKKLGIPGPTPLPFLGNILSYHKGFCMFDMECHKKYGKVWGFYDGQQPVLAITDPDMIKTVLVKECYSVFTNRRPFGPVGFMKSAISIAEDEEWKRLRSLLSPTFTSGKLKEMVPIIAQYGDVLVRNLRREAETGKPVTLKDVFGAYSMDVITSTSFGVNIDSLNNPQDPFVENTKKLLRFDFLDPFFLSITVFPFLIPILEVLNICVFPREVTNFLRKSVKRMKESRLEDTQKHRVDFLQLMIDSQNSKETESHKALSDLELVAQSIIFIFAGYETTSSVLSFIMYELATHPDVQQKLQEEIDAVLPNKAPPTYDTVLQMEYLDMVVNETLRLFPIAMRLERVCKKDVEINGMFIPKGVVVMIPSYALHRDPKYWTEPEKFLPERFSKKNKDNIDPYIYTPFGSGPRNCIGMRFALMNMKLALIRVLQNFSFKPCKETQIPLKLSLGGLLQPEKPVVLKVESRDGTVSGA
The nature of data set [3]: Metabolic stability in mouse liver microsomes assessed as intrinsic clearance followed by substrate addition incubated for 30 mins by LC-MS/MS analysis. Type of data set: ADME, Microsome. Conditions: read-out: CLH.
Data set [4] is described as follows: Metabolic stability in human liver microsomes assessed as intrinsic clearance followed by substrate addition incubated for 30 mins by LC-MS/MS analysis. Type of data set: ADME, Microsome. The conditions noted are these: read-out: CLH.
Data set [5] can be described thus: Metabolic stability in rat liver microsomes assessed as intrinsic clearance followed by substrate addition incubated for 30 mins by LC-MS/MS analysis. Type of data set: ADME, Microsome. Conditions: read-out: CLH.
The nature of data set [6]: Apparent permeability across apical to basolateral side in dog MDCK1 cells at 10 uM by LC-MS/MS analysis. Conditions: for Papp A→B at 10 µM: MDCK. Type of data set: ADME, cell-based, Canis lupus familiaris.
In data set [7] the target is T1, Mitogen-activated protein kinase kinase kinase kinase 1. Kind of data set: Inhibition of HPK1 in human Jurkat E6.1 cells assessed as SLP76 phosphorylation incubated for 30 mins followed by anti-CD3, biotinylated anti-SLP76 and TMB substrate addition measured after 3 hrs by ELISA assay. Type of data set: cell-based.
Data set [8] shares this target. In words: Inhibition of HPK1 (unknown origin) preincubated for 30 mins with compound followed by Biotin-SLP-76 substrate in presence of ATP incubated for 60 mins measured after 1 hr by TR-FRET based HTRF enzymatic assay.
The nature of data set [9]: Metabolic stability in mouse hepatocytes assessed as hepatic clearance. Type of data set: ADME, cell-based, Hepatocyte. Details: dose or concentration left out as unconfirmed.
Data set [10] can be described thus: Blood clearance in female C57BL/6 mouse at 1 mg/kg, iv administered as bolus dose measured upto 24 hrs by LC-MS/MS analysis. Type of data set: ADME, organism-based. The conditions noted are these: whole blood.
Data set [11] is described as follows: Metabolic stability in rat hepatocytes assessed as hepatic clearance. Type of data set: ADME, cell-based, Hepatocyte. Set-up: dose or concentration left out as unconfirmed.
In data set [12] the test system is T-cell line. Kind of data set: Effects of compound on IL-2 production in human pan T-cells followed by anti-CD3/CD28-stimulation assessed as increase in IL-2 level incubated for 30 mins by ELISA method. Type of data set: functional, cell-based. The conditions noted are these: 0.5 h. (In general: ELISA stands for enzyme-linked immunosorbent assay.)
Data set [13] is described as follows: Oral bioavailability in female C57BL/6 mouse at 25 mg/kg measured upto 24 hrs by LC-MS/MS analysis. The conditions noted are these: in vivo. Type of data set: ADME, organism-based.
Data set [14] is described as follows: Volume of distribution in female C57BL/6 mouse at 1 mg/kg, iv administered as bolus dose measured upto 24 hrs by LC-MS/MS analysis. Type of data set: ADME, organism-based. Conditions: in vivo.
Data set [15] in a line: Metabolic stability in human hepatocytes assessed as hepatic clearance at 1 uM measured upto 3 hrs by LC-MS/MS analysis. Type of data set: ADME, cell-based, Hepatocyte.

Bounds are passed on as bounds.

T1 sequence (Q92918 whole entry): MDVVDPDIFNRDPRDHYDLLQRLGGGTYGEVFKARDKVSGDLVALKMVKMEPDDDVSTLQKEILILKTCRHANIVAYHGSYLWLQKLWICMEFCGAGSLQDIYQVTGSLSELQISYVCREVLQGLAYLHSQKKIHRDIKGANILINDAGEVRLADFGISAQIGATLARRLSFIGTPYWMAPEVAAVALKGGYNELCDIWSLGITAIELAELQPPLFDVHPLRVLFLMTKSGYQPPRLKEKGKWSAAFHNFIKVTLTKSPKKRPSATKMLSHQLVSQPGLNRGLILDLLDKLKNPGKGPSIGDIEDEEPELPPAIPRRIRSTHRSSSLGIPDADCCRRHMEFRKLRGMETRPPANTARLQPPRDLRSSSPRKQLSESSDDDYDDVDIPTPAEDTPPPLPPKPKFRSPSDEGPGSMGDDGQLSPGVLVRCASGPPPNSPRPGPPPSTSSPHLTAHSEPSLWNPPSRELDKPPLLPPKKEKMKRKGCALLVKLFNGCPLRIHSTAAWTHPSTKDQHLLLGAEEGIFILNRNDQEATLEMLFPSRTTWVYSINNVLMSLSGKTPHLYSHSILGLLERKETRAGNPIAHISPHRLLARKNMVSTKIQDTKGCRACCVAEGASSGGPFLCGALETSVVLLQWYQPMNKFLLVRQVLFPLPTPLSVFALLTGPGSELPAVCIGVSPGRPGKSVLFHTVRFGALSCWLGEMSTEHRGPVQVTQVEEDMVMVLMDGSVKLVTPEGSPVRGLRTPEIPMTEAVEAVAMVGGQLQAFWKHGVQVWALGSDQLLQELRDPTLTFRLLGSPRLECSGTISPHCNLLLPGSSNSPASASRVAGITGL

As for `CN(C)C(=O)c1cc(-c2cnc3c(c2)C2(CCCC2)CN3)ccc1N`, the Ki (commonly a measure of affinity in units of concentration, obtained from inhibition or displacement) in [1] turned out to be 28 nM. Moreover, the IC50 (in general, the midpoint of a concentration-inhibition curve) in data set [2] was determined as 9800 nM.

In data set [1], `CCc1c[nH]c2ncc(-c3ccc(N)c(C(=O)N(C)C)n3)cc12` came in with an inhibitory constant (Ki) of 3.3 nM. In addition, in data set [2], 1600 nM corresponded to half-maximal inhibition (IC50). Further, the values for the predicted hepatic clearance in data set [3], in data set [4] and in data set [5] were 81 mL/min/kg, 17 mL/min/kg and 28 mL/min/kg, respectively.

As to `CCc1c[nH]c2ncc(-c3ccc(N)c(C(=O)N(C)C)c3)c(Cl)c12`, the Ki in data set [1] is 2.6 nM.

The compound `CCc1c[nH]c2ncc(-c3cccc(C(=O)N(C)C)c3)cc12` returned a Ki in data set [1] of 5.2 nM. For the same compound, the IC50 in [2] came to 1700 nM. Besides, the predicted hepatic clearance in [3] was 84 mL/min/kg; in [4], 18 mL/min/kg; in data set [5], 43 mL/min/kg.

For `CN(C)C(=O)c1c(N)ccc(-c2cnc3c(c2Cl)[C@]2(CC[C@](C)(C#N)CC2)CN3)c1F`, in data set [6], the Papp A→B (commonly the apparent permeability from the apical to the basolateral side of a cell layer) at 10 µM was determined as 26 ×10⁻⁶ cm/s. In addition, in data set [7], the IC50 is 7900 nM.

In turn, `CN(C)C(=O)c1c(N)ccc(-c2cnc3c(c2Cl)C2(CCC2)CN3)c1F` registered a half-maximal inhibitory concentration (IC50) in [2] above 10000 nM.

For `Cc1c(-c2ccc(N)c(C(=O)N(C)C)c2F)cnc2c1C1(CC1)CN2`, in data set [1], the Ki is 43 nM. The compound further registered a half-inhibitory concentration (IC50) in data set [2] of 6500 nM.

In [1], `CCc1c[nH]c2ncc(-c3ccc(N)c(C(=O)N(C)C)c3)c(CC)c12` returned a Ki of 2.8 nM.

In data set [1], `CN(C)C(=O)c1c(N)ccc(-c2cnc3c(c2Cl)[C@@]2(CC[C@@](C)(C(N)=O)C2)CN3)c1F` displayed a Ki of 85 nM. Also, the Papp A→B at 10 µM in data set [6] is 0.4 ×10⁻⁶ cm/s. Also, the IC50 in data set [7] was above 25000 nM.

For `COc1ccccc1-c1c[nH]c2ncc(-c3ccc(N)c(C(=O)N(C)C)c3)cc12`, in data set [1], affinity was put at a Ki of 0.4 nM.

Take `CN(C)C(=O)c1c(N)ccc(-c2cnc3c(c2Cl)[C@]2(CC[C@@]4(CCCCNC4=O)C2)CN3)c1F`: the apparent permeability from apical to basolateral (Papp A→B) at 10 µM in [6] came out at 6.5 ×10⁻⁶ cm/s. Moreover, the IC50 in [7] was found to be 1200 nM. Also, the Ki in data set [8] turned out to be 7.2 nM.

For `CN(C)C(=O)c1c(N)ccc(-c2cnc3c(c2Cl)[C@]2(CC[C@](C)(C(N)=O)C2)CN3)c1F`, in data set [1], the affinity, expressed as Ki, was 0.8 nM. The CLhep predicted in [9] is 33 mL/min/kg; in data set [11], 18 mL/min/kg. Besides, the Papp in data set [6] (mdck1, 10 µM) was 0.3 10^-6 cm/s. Moreover, the IC50 in data set [7] stood at 440 nM. Also, the clearance (usually a measure of how efficiently the substance is removed, as volume per time) in [10] was 57 mL/min/kg. Moreover, the EC50 (as a rule, the concentration at which the effect is half-maximal) in data set [12] is 1560 nM. For the same compound, the bioavailability – broadly, dose-corrected exposure relative to a reference, in per cent – in data set [13] came out at 13%. Also, the Vd – broadly, the apparent volume that relates the amount in the body to the concentration in plasma or blood – in [14] was 1.9 L/kg. In addition, the CLhep predicted at 1 µM in data set [15] was 9.5 mL/min/kg.

`CCc1c[nH]c2ncc(-c3ccc(N)c(C(=O)N(C)C)c3)c(C)c12` displayed an inhibitory constant (Ki) in data set [1] of 2.4 nM.

`CN(C)C(=O)c1c(N)ccc(-c2cnc3c(c2Cl)[C@]2(CC[C@](C)(O)CC2)CN3)c1F` showed a Ki in data set [1] of 8.2 nM. The Papp A→B at 10 µM in [6] was found to be 5.7 ×10⁻⁶ cm/s. The concentration for half-maximal inhibition (IC50) in [7] worked out at 3000 nM.

For `CCc1c(Cl)[nH]c2ncc(-c3ccc(N)c(C(=O)N(C)C)c3)cc12`, in data set [1], the inhibition constant Ki was found to be 2.7 nM. The same compound gave a 50% inhibitory concentration (IC50) in [2] of 200 nM.

For the compound `CCc1c[nH]c2ncc(-c3ccc(N)c(C(=O)N(C)C)c3)cc12`, in [1], the affinity corresponds to a Ki of 2.1 nM. Also, the IC50 in data set [2] was found to be 500 nM. The results for the predicted hepatic clearance in [3], in data set [4] and in data set [5] were 80 mL/min/kg, 12 mL/min/kg and 25 mL/min/kg, respectively.

As for `CN(C)C(=O)c1c(N)ccc(-c2cnc3c(c2Cl)[C@]2(CC[C@@]4(CCCNC4=O)C2)CN3)c1F`, in [6], the apparent permeability from apical to basolateral (Papp A→B) at 10 µM amounted to 7.1 ×10⁻⁶ cm/s. For the same compound, the 50% inhibitory concentration (IC50) in data set [7] came to 1700 nM. The inhibition constant (Ki) in [8] came out at 6.5 nM.

In turn, `CN(C)C(=O)c1cc(-c2cnc3c(c2)C2(CCC2)CN3)ccc1N` registered a Ki in [1] of 66 nM. In data set [2], the IC50 was above 10000 nM.

As for `CN(C)C(=O)c1cc(-c2cnc3c(c2)C2(CC2)CN3)ccc1N`, in data set [1], the Ki stood at 33 nM. In data set [2], this compound had an IC50 above 10000 nM.

In data set [1], `CCc1c[nH]c2ncc(-c3ccc(N)c(C(=O)N(C)C)c3F)cc12` had a Ki of 0.47 nM. This compound yielded an IC50 in data set [2] of 700 nM. Further, the predicted hepatic clearance was 80 mL/min/kg in [3], 16 mL/min/kg in data set [4] and 37 mL/min/kg in data set [5].

Consider `CN(C)C(=O)c1c(N)ccc(-c2cnc3c(c2Cl)C2(CCCC2)CN3)c1F`, for which the Ki in [1] was 2.5 nM. For the same compound, the Papp A→B at 10 µM in data set [6] was determined as 23 ×10⁻⁶ cm/s. For the same compound, the IC50 in data set [7] amounted to 1500 nM; in data set [2], 800 nM.

`CN(C)C(=O)c1cc(-c2cnc3[nH]ccc3c2)ccc1N`: in data set [1], the Ki came out at 1.5 nM.

As to `CNC(=O)[C@H]1CC[C@@]2(CNc3ncc(-c4ccc(N)c(C(=O)N(C)C)c4F)c(Cl)c32)C1` (racemic), the inhibitory constant (Ki) in data set [1] came out at 63 nM. Besides, the Papp A→B at 10 µM in [6] turned out to be 0.8 ×10⁻⁶ cm/s. The 50% inhibitory concentration (IC50) in data set [7] is 7400 nM.

Consider `CN(C)C(=O)c1c(N)ccc(-c2cnc3c(c2Cl)[C@]2(CC[C@](C)(C(N)=O)C2)CN3)c1F` (racemic), for which the affinity in [1], expressed as Ki, was 2 nM. Further, the Papp A→B at 10 µM in data set [6] turned out to be 0.3 ×10⁻⁶ cm/s. For the same compound, the IC50 in data set [7] came out at 1100 nM.

In data set [1], `CN(C)C(=O)c1c(N)ccc(-c2cnc3c(c2Cl)[C@]2(CC[C@H](c4ncn[nH]4)C2)CN3)c1F` (racemic) yielded an inhibition constant Ki of 14 nM. Further, the apparent permeability from apical to basolateral (Papp A→B) at 10 µM in data set [6] was determined as 0.4 ×10⁻⁶ cm/s. Further, the IC50 in [7] came to 15000 nM.

Turning to `CN(C)C(=O)c1c(N)ccc(-c2cnc3c(c2Cl)[C@]2(CC[C@H](C(N)=O)C2)CN3)c1F` (racemic), the Ki in data set [1] came out at 1.8 nM. In addition, the Papp A→B at 10 µM in data set [6] was determined as 0.2 ×10⁻⁶ cm/s. The half-maximal inhibitory concentration (IC50) in data set [7] is 14000 nM.

`CN(C)C(=O)c1c(N)ccc(-c2cnc3c(c2Cl)[C@]2(CC[C@H](O)C2)CN3)c1F` (racemic): in data set [6], the Papp A→B at 10 µM is 5 ×10⁻⁶ cm/s. For the same compound, the IC50 in data set [7] was 5000 nM.

In turn, `CN(C)C(=O)c1c(N)ccc(-c2cnc3c(c2Cl)[C@]2(CC[C@](C)(C#N)C2)CN3)c1F` (racemic) showed a Ki in data set [1] of 11 nM. Further, in data set [6], the apparent permeability from apical to basolateral (Papp A→B) at 10 µM stood at 21 ×10⁻⁶ cm/s. Besides, the IC50 in data set [7] stood at 1700 nM.

In turn, `CN(C)C(=O)c1c(N)ccc(-c2cnc3c(c2Cl)[C@]2(CC[C@](C)(O)C2)CN3)c1F` (racemic) gave an inhibition constant Ki in data set [1] of 8.1 nM. For the same compound, the Papp A→B at 10 µM in [6] was 4.1 ×10⁻⁶ cm/s. For the same compound, the 50% inhibitory concentration (IC50) in data set [7] turned out to be 2000 nM.

These data come from ChEMBL document CHEMBL5038654, “Discovery of Spiro-azaindoline Inhibitors of Hematopoietic Progenitor Kinase 1 (HPK1)” (ACS Med Chem Lett, 2022).
